Where “and” joins values, the source holds several entries; their conditions need not be identical. Identical values can stand only once.
Assays:
Assay in all cases: radiometric filter-binding kinase assay
YES1 (human) = YES1 (human) (UniProt P07947); conditions: compound 100.0 µM; ATP 20 µM
ERBB4 (human) = ERBB4 (human) (UniProt Q15303); conditions: compound 100.0 µM; ATP 5 µM
DYRK3 (human) = DYRK3 (human) (UniProt O43781); conditions: compound 100.0 µM; ATP 5 µM
EPHB4 (human) = EPHB4 (human) (UniProt P54760); conditions: compound 100.0 µM; ATP 5 µM
RPS6KA3 KD1 KD2 (human) = RPS6KA3 KD1 KD2 (human) (UniProt P51812); conditions: compound 100.0 µM; ATP 50 µM
Chain of RPS6KA3 KD1 KD2 (human) (P51812 whole entry, looked up): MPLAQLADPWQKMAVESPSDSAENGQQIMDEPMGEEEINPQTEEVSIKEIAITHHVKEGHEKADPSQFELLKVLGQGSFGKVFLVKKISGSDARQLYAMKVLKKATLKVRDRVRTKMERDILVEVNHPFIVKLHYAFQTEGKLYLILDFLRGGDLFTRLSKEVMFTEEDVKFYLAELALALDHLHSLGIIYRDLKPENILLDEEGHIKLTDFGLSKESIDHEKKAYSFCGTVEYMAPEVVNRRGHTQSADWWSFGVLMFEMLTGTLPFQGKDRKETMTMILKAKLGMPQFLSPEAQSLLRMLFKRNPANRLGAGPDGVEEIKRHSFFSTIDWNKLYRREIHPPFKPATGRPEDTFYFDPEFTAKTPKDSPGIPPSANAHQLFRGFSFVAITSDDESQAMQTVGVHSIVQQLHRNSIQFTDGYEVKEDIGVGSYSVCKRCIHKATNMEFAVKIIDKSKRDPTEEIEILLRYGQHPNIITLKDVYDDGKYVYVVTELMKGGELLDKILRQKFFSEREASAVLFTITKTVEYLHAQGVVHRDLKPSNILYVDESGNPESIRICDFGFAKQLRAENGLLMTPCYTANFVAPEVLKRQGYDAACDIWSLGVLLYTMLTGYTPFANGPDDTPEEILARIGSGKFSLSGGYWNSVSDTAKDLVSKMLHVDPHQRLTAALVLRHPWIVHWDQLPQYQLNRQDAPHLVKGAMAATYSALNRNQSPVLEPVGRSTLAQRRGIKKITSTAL

TEK (human) = TEK (human) (UniProt Q02763); conditions: compound 100.0 µM; ATP 20 µM
PRKACA (human) = PRKACA (human) (UniProt P17612); conditions: compound 100.0 µM; ATP 20 µM
MYLK (human) = MYLK (human) (UniProt Q15746); conditions: compound 100.0 µM; ATP 50 µM
BTK (human) = BTK (human) (UniProt Q06187); conditions: compound 100.0 µM; ATP 50 µM
MINK1 (human) = MINK1 (human) (UniProt Q8N4C8); conditions: compound 100.0 µM; ATP 50 µM
STK3 (human) = STK3 (human) (UniProt Q13188); conditions: compound 100.0 µM; ATP 20 µM
NUAK1 (human) = NUAK1 (human) (UniProt O60285); conditions: compound 100.0 µM; ATP 20 µM
DYRK1A (human) = DYRK1A (human) (UniProt Q13627); conditions: compound 100.0 µM; ATP 50 µM
MKNK2 (human) = MKNK2 (human) (UniProt Q9HBH9); conditions: compound 100.0 µM; ATP 50 µM
MAPK8 (human) = MAPK8 (human) (UniProt P45983); conditions: compound 100.0 µM; ATP 20 µM
Chain of MAPK8 (human) (P45983 whole entry, looked up): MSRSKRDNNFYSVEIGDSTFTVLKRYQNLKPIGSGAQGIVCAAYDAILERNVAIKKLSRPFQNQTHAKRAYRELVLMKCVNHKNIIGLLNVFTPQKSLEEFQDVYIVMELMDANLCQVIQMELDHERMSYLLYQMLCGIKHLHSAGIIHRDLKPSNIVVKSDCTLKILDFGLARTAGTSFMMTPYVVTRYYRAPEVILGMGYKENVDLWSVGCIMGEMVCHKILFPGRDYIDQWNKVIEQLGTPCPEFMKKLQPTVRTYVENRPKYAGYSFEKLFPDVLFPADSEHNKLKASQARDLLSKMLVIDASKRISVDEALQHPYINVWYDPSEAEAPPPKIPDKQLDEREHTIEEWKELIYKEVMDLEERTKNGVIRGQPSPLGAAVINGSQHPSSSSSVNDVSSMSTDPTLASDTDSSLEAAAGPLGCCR

PRKCG (human) = PRKCG (human) (UniProt P05129); conditions: compound 100.0 µM; ATP 20 µM
CSK (human) = CSK (human) (UniProt P41240); conditions: compound 100.0 µM; ATP 20 µM
MAPKAPK5 (human) = MAPKAPK5 (human) (UniProt Q8IW41); conditions: compound 100.0 µM; ATP 20 µM
MKNK1 (human) = MKNK1 (human) (UniProt Q9BUB5); conditions: compound 100.0 µM; ATP 50 µM
TAOK1 (human) = TAOK1 (human) (UniProt Q7L7X3); conditions: compound 100.0 µM; ATP 20 µM
ROCK2 (rat) = conditions: compound 100.0 µM; ATP 20 µM; accession and sequence are those of the human protein
MAP2K6 (human) = MAP2K6 (human) (UniProt P52564); conditions: compound 100.0 µM; ATP 50 µM
MAPK11 (human) = MAPK11 (human) (UniProt Q15759); conditions: compound 100.0 µM; ATP 20 µM
Chain of MAPK11 (human) (Q15759 whole entry, looked up): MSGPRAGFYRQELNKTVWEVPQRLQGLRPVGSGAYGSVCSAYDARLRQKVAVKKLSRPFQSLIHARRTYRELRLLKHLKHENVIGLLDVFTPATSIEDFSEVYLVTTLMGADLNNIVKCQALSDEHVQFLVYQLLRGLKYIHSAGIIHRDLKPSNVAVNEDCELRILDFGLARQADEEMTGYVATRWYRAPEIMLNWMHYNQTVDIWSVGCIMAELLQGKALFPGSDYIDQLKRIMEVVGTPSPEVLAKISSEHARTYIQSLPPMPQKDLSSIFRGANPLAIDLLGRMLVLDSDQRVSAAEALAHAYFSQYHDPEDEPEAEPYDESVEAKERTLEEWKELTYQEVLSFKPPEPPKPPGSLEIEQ

NEK2 (human) = NEK2 (human) (UniProt P51955); conditions: compound 100.0 µM; ATP 50 µM
RPS6KA1 KD1 KD2 (human) = RPS6KA1 KD1 KD2 (human) (UniProt Q15418); conditions: compound 100.0 µM; ATP 50 µM
HIPK3 (human) = HIPK3 (human) (UniProt Q9H422); conditions: compound 100.0 µM; ATP 20 µM
SRC (human) = SRC (human) (UniProt P12931); conditions: compound 100.0 µM; ATP 50 µM
LCK (mouse) = conditions: compound 100.0 µM; ATP 50 µM; accession and sequence are those of the human protein
ZAP70 (human) = ZAP70 (human) (UniProt P43403); conditions: compound 100.0 µM; ATP 5 µM
MAP3K5 (human) = MAP3K5 (human) (UniProt Q99683); conditions: compound 100.0 µM; ATP 50 µM
EPHA4 (human) = EPHA4 (human) (UniProt P54764); conditions: compound 100.0 µM; ATP 50 µM
MARK3 (human) = MARK3 (human) (UniProt P27448); conditions: compound 100.0 µM; ATP 5 µM
Chain of MARK3 (human) (P27448 whole entry, looked up): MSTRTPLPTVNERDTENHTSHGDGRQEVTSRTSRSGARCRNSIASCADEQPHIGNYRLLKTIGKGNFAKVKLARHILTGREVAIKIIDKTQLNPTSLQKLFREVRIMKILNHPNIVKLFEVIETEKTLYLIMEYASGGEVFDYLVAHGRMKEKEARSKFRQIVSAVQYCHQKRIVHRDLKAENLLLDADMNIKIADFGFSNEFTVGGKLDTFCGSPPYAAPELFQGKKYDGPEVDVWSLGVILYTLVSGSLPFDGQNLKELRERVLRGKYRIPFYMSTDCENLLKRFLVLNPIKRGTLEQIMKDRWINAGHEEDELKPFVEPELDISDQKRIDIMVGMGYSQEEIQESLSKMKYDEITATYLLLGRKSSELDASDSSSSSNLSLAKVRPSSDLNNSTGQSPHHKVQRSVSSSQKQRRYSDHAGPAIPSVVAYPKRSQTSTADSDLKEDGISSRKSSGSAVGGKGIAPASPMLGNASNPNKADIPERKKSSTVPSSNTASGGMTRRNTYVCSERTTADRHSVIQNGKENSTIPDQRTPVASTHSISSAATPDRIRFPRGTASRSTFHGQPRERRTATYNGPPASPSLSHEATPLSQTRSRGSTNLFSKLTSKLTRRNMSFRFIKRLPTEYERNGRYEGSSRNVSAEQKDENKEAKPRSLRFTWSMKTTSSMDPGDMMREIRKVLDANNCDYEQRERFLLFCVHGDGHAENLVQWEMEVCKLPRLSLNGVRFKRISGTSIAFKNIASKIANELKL

MAP3K1 (human) = MAP3K1 (human) (UniProt Q13233); conditions: compound 100.0 µM; ATP 50 µM
EPHB2 (human) = EPHB2 (human) (UniProt P29323); conditions: compound 100.0 µM; ATP 20 µM
MAPKAPK2 (human) = MAPKAPK2 (human) (UniProt P49137); conditions: compound 100.0 µM; ATP 20 µM
DAPK1 (human) = DAPK1 (human) (UniProt P53355); conditions: compound 100.0 µM; ATP 5 µM
RPS6KA5 KD1 KD2 (human) = RPS6KA5 KD1 KD2 (human) (UniProt O75582); conditions: compound 100.0 µM; ATP 20 µM
Chain of RPS6KA5 KD1 KD2 (human) (O75582 whole entry, looked up): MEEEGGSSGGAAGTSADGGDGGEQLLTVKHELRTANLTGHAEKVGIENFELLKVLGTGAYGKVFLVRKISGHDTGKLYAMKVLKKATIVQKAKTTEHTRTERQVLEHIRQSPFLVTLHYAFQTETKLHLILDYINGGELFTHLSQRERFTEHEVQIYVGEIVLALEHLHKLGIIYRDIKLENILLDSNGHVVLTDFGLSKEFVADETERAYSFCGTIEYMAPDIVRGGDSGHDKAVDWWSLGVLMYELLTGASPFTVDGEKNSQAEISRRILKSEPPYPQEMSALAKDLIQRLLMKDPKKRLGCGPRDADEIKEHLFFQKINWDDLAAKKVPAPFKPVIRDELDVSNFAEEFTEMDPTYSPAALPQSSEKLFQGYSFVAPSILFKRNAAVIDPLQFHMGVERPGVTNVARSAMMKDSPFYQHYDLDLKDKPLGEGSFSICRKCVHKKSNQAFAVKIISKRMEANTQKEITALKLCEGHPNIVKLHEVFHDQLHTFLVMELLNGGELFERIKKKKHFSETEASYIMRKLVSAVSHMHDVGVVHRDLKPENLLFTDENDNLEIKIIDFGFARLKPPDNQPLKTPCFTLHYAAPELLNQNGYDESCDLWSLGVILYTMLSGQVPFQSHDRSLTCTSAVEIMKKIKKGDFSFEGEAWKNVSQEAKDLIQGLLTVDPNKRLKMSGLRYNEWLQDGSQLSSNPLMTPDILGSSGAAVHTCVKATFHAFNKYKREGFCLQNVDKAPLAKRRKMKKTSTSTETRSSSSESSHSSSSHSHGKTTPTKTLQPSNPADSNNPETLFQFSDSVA

[1] = tested on: PAK2 (human), Q13177 [T402E]; conditions: compound 100.0 µM; ATP 20 µM
Chain of PAK2 (human), Q13177 [T402E] (Q13177 whole entry T402E, looked up): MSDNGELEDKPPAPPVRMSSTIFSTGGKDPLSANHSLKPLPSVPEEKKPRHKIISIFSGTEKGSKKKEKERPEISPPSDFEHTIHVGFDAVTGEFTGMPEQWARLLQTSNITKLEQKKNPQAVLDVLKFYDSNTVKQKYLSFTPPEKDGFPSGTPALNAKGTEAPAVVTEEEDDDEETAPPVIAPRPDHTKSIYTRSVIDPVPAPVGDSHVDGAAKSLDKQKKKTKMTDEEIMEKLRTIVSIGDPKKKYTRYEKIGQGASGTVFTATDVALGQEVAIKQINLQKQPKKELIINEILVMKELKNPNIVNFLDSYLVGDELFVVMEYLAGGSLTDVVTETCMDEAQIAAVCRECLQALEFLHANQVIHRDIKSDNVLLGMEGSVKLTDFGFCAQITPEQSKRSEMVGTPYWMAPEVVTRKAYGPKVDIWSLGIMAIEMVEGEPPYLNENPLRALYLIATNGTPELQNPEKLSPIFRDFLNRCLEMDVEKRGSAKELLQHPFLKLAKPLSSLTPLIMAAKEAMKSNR

EEF2K (human) = EEF2K (human) (UniProt O00418); conditions: compound 100.0 µM; ATP 5 µM

Chain of YES1 (human) (P07947 whole entry, looked up): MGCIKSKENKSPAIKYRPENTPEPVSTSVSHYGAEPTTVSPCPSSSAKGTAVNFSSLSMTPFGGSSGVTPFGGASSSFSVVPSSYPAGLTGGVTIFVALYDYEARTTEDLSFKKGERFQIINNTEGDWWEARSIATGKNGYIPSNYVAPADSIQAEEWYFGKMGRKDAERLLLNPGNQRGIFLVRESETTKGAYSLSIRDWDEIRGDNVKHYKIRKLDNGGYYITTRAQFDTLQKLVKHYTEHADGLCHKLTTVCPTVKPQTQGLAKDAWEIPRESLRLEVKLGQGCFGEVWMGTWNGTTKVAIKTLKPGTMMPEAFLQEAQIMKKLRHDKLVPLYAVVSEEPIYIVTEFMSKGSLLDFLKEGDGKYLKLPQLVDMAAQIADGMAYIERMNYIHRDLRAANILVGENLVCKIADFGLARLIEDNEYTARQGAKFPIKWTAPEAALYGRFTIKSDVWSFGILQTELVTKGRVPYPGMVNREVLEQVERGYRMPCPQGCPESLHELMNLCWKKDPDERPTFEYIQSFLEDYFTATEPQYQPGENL
Chain of DYRK3 (human) (O43781 whole entry, looked up): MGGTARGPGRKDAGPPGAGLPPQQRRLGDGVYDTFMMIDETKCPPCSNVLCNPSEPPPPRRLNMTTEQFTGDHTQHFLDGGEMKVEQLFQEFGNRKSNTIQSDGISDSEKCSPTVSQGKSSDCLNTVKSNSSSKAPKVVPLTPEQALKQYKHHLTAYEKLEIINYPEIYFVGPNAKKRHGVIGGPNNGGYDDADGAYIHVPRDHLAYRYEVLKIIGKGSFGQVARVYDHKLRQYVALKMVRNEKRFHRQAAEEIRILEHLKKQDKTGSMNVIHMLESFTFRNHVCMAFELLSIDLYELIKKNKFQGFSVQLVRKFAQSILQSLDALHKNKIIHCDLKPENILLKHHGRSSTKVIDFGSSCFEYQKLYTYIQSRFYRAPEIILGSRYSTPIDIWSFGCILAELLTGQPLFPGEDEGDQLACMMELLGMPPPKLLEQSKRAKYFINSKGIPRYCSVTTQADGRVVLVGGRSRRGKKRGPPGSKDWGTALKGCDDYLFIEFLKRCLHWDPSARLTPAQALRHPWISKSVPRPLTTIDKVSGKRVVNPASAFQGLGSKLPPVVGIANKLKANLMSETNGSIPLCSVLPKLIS

Structure (SMILES)	inhibition (YES1 (human)) [%]	inhibition (ERBB4 (human)) [%]	inhibition (DYRK3 (human)) [%]	inhibition (EPHB4 (human)) [%]	inhibition (RPS6KA3 KD1 KD2 (human)) [%]	inhibition (TEK (human)) [%]	inhibition (PRKACA (human))	inhibition (MYLK (human)) [%]	inhibition (BTK (human)) [%]	inhibition (MINK1 (human)) [%]	inhibition (STK3 (human)) [%]	inhibition (NUAK1 (human)) [%]	inhibition (DYRK1A (human)) [%]	inhibition (MKNK2 (human)) [%]	inhibition (MAPK8 (human)) [%]	inhibition (PRKCG (human)) [%]	inhibition (CSK (human)) [%]	inhibition (MAPKAPK5 (human)) [%]	inhibition (MKNK1 (human)) [%]	inhibition (TAOK1 (human)) [%]	other results
CC(C)(C)Nc1c(COCc2ccccc2)nc2[nH]cnn12	4	53	17	13	48	0	0% and 21%	24	51	3	0	20	30	0	2	8	0	44	0	0	inhibition (ROCK2 (rat)): 0%; inhibition (MAP2K6 (human)): 1%; inhibition (MAPK11 (human)): 3%; inhibition (NEK2 (human)): 6%; inhibition (RPS6KA1 KD1 KD2 (human)): 3%; inhibition (HIPK3 (human)): 1%; inhibition (SRC (human)): 12%; inhibition (LCK (mouse)): 5%; inhibition (ZAP70 (human)): 0%; inhibition (MAP3K5 (human)): 2%; inhibition (EPHA4 (human)): 4%; inhibition (MARK3 (human)): 13%; inhibition (MAP3K1 (human)): 0%; inhibition (EPHB2 (human)): 1%; inhibition (MAPKAPK2 (human)): 2%; inhibition (DAPK1 (human)): 14%; inhibition (RPS6KA5 KD1 KD2 (human)): 0%; inhibition [1]: 14%; inhibition (EEF2K (human)): 0%
O=C(Nc1cnc2[nH]ccn2c1=O)c1ccccc1	11	25	18	5	10	0	0% and 2%	36	14	25	21	0	0	25	0	0	23	17	0	0	inhibition (ROCK2 (rat)): 11%; inhibition (MAP2K6 (human)): 0%; inhibition (MAPK11 (human)): 23%; inhibition (NEK2 (human)): 6%; inhibition (RPS6KA1 KD1 KD2 (human)): 23%; inhibition (HIPK3 (human)): 0%; inhibition (SRC (human)): 8%; inhibition (LCK (mouse)): 23%; inhibition (ZAP70 (human)): 9%; inhibition (MAP3K5 (human)): 0%; inhibition (EPHA4 (human)): 16%; inhibition (MARK3 (human)): 12%; inhibition (MAP3K1 (human)): 3%; inhibition (EPHB2 (human)): 14%; inhibition (MAPKAPK2 (human)): 29%; inhibition (DAPK1 (human)): 16%; inhibition (RPS6KA5 KD1 KD2 (human)): 4%; inhibition [1]: 12%; inhibition (EEF2K (human)): 11%
COc1ccc(-c2cc3c(=O)[nH]cnc3s2)cc1OC	0	17	36	0	52	0	34% and 38%	0	29	60	9	0	36	21	8	0	14	5	5	28	inhibition (ROCK2 (rat)): 19%; inhibition (MAP2K6 (human)): 18%; inhibition (MAPK11 (human)): 15%; inhibition (NEK2 (human)): 0%; inhibition (RPS6KA1 KD1 KD2 (human)): 59%; inhibition (HIPK3 (human)): 0%; inhibition (SRC (human)): 0%; inhibition (LCK (mouse)): 29%; inhibition (ZAP70 (human)): 0%; inhibition (MAP3K5 (human)): 19%; inhibition (EPHA4 (human)): 12%; inhibition (MARK3 (human)): 24%; inhibition (MAP3K1 (human)): 0%; inhibition (EPHB2 (human)): 17%; inhibition (MAPKAPK2 (human)): 8%; inhibition (DAPK1 (human)): 0%; inhibition (RPS6KA5 KD1 KD2 (human)): 22%; inhibition [1]: 0%; inhibition (EEF2K (human)): 2%

— the kinase profiling compilation of Christmann-Franck et al. (2016)
